Results on three molecules are retold here after patent US10813951B2, “Method of engineering chemotherapy drug resistant T-cells for immunotherapy” (CELLECTIS, priority 2013, dated 2020).

For one data set, the system named is HPRT KO T cells. In words: 6TG IC50, T cell viability. Type of data set: cell-based. The settings on record: FIG. 27. On the procedure:
(§1) Such inactivation confers 6TG resistance that contrasts with the sensitivity of WT T cells to this drug. IC50 can be approximately determined to 10 nM and >100 μM for WT and HPRT KO T cells respectively.

Data set [1] relates to WT T cells. In words: 6TG IC50, T cell viability. In kind it is cell-based. The settings on record: FIG. 27. On the procedure:
as §1

In the next data set the test system is dCK KO T cells. In words: Clofarabine IC50, T cell viability by FACS. The settings on record: 48 h, 2 days incubation with clofarabine 0 to 10 μM, FIG. 8, read-out: IC50 (amount of drug to decrease cell viability to 50%). In kind it is cell-based. On the procedure: (§2) FIG. 8 represents the percentage of cell viability of WT and dCK KO T cells (treated with 5 μg or 10 μg of mRNA encoding dCK2 TALE-nuclease pair) cultured for two days in the presence of increasing amount of clofarabine (10 nM to 10 μM). This graph allows to determine the Clofarabine IC50 toward both cell populations;
(§3) To further investigate the ability of T cells to resist to clofarabine, IC50 for this drug was determined on dCK KO and WT T cells. The cells were collected 3 days after transfection were incubated for 2 days in the presence of increasing concentration of clofarabine (0 to 10 μM). At the end of clofarabine incubation, viability of T cells was determined by FACS analysis2.
(§4) The results presented in FIG. 8 show clearly that the processing of dCK gene mediated by TALE-nucleases efficiently inactivates dCK activity in T cells. Such inactivation correlates to clofarabine resistance, contrasting with the sensitivity of WT T cells. The IC50 values (amount of drug to add in the media to decrease cell viability to 50%) correspond respectively to about 100 nM and 10 μM for WT and dCK KO T cells.

Data set [2] concerns WT T cells. Briefly: Clofarabine IC50, T cell viability by FACS. The settings on record: 48 h, 2 days incubation with clofarabine 0 to 10 μM, FIG. 8, read-out: IC50 (amount of drug to decrease cell viability to 50%). In kind it is cell-based. On the procedure: as §2, §3, §4
For orientation: Flow cytometry measures light scatter and fluorescence of single cells or particles in a stream.

Data set [3] concerns CAR T cells negative control. Briefly: Sensitivity of CAR T cells to clofarabine and fludarabine (cell viability). Type of data set: cell-based.
Experimental: (§7) These graphs allows determination of IC50 for both drugs clofarabine and fludarabine;
(§8) T cells were grown with or without clofarabine between D3 and D8 (see workflow 2 in FIG. 9), then they were incubated for 2 days (from D15 to D17) in media with different concentrations of clofarabine. T cells viability was then assessed by FACS analysis using the count bright kit.
(§9) These cells were then used to determined their sensitivity for clofarabine and fludarabine as performed before.
The next data set deals with dCK/TRAC KO CAR T cells. The description is as above. In kind it is cell-based.
Another data set relates to dCK KO Daudi cells. Briefly: Growth of Daudi cells in media with clofarabine. Type of data set: cell-based. The settings on record: up to 1 μM clofarabine, FIG. 19. On the procedure:
(§5) FIG. 19 represents the growth rate (expressed in ×10^6 cells) for a period of 7 days of KO dCK Daudi cells versus WT Daudi cells in the absence or presence of increasing amounts of clofarabine (0.1 to 1 μM);
(§6) Daudi cells were cultured in media having different concentrations of clofarabine (0; 0.1; 0.25; 0.5 and 1 μM) for several days and counted at each passage.

A further data set concerns WT Daudi cells. Briefly: Growth of Daudi cells in media with clofarabine. In kind it is cell-based. The settings on record: clofarabine 0.1 to 1 μM, FIG. 19. As for the experimental part: as §5, §6
The conditions of data set [4]: clinically relevant dose for ALL treatment, reported by EMA; cited from earlier work.
Data set [5] deals with double KO dCK/TCAR CAR T-cells. In words: Growth rate of double KO CAR T-cells in the presence of clofarabine. In kind it is cell-based. The settings on record: 11 days, clofarabine 0.1 μM to 10 μM, FIG. 14. On the procedure: This experiment was performed on double KO dCK/TCAR T CAR T-cells (FMC63 which is described in patent application having the filing number PCT/EP2014/059662.) by culturing these cells during 11 days in media having different clofarabine (from 0.1 μM to 10 μM).

Like-named read-outs stand apart in the source and are kept apart here. A value given as a limit tells only on which side of the number the result lay.

Experimental for dCK/TRAC KO CAR T cells: as §7, §8, §9

Regarding `Nc1nc2nc[nH]c2c(=S)[nH]1` [6TG, 6-thioguanine], the IC50 (in general, the concentration that gives 50% inhibition) in the data set with HPRT KO T cells is > 100000 nM; in the data set with WT T cells [1], ~10 nM.

With `Nc1nc(Cl)nc2c1ncn2[C@@H]1O[C@H](CO)[C@@H](O)[C@@H]1F` [clofarabine], the IC50 in the data set with dCK KO T cells is ~10000 nM; in the data set on WT T cells [2], ~100 nM; in data set [3] (CAR T cells negative control, FIG. 17, read-out: IC50 clofarabine) it was 0.1 nM; with dCK/TRAC KO CAR T cells (dCK/TRAC KO CAR T cells (FMC63), FIG. 17, read-out: IC50 clofarabine), 500 nM. Further, the results for the “growth of cells in presence of clofarabine” value in the data set with dCK KO Daudi cells and in the data set with WT Daudi cells were “able to grow” and “clearly impaired”, respectively. Moreover, in [4], the Cmax (as a rule, the maximum level reached in the sampled fluid or tissue) was 1000 nM. In addition, the “cell expansion in presence of clofarabine” value in [5] is listed as “correct up to the 1 μM”.

For `Nc1nc(F)nc2c1ncn2[C@@H]1O[C@H](CO)[C@@H](O)[C@@H]1O` [fludarabine], the IC50 in data set [3] (T CAR control, FIG. 17, read-out: IC50 fludarabine) worked out at 10000 nM; in the data set with dCK/TRAC KO CAR T cells (double KO CAR T cells, FIG. 17, read-out: IC50 fludarabine) it was 400000 nM.
